From PubChem BioAssay (NCI)
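The compound was tested at five concentrations on cells cultured in 96-well plates, with a 48-hour exposure period. TGI denotes the concentration required for complete inhibition of growth.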

Experiments:
Assay in all cases: NCI-60 cell line screen, 48 h
A498 renal = system: A498 renal
BT-549 breast = system: BT-549 breast
HCT-15 colon = system: HCT-15 colon
NCI-H226 lung = system: NCI-H226 lung
NCI-H23 lung = system: NCI-H23 lung
NCI-H460 lung = system: NCI-H460 lung
NCI/ADR-RES ovarian = system: NCI/ADR-RES ovarian
OVCAR-5 ovarian = system: OVCAR-5 ovarian
PC-3 prostate = system: PC-3 prostate
RPMI-8226 leukemia = system: RPMI-8226 leukemia
RXF 393 renal = system: RXF 393 renal
SK-MEL-28 melanoma = system: SK-MEL-28 melanoma
SK-OV-3 ovarian = system: SK-OV-3 ovarian
SR leukemia = system: SR leukemia
SW-620 colon = system: SW-620 colon
U251 CNS = system: U251 CNS
UACC-257 melanoma = system: UACC-257 melanoma

| SMILES | TGI (A498 renal) [µM] | TGI (BT-549 breast) [µM] | TGI (HCT-15 colon) [µM] | TGI (NCI-H226 lung) [µM] | TGI (NCI-H23 lung) [µM] | TGI (NCI-H460 lung) [µM] | TGI (NCI/ADR-RES ovarian) [µM] | TGI (OVCAR-5 ovarian) [µM] | TGI (PC-3 prostate) [µM] | TGI (RPMI-8226 leukemia) [µM] | TGI (RXF 393 renal) [µM] | TGI (SK-MEL-28 melanoma) [µM] | TGI (SK-OV-3 ovarian) [µM] | TGI (SR leukemia) [µM] | TGI (SW-620 colon) [µM] | TGI (U251 CNS) [µM] | TGI (UACC-257 melanoma) [µM] |
| --- | --- | --- | --- | --- | --- | --- | --- | --- | --- | --- | --- | --- | --- | --- | --- | --- | --- |
| CC1=NN(c2nc(N)nc(NS(=O)(=O)c3cc(C)c(Cl)cc3S)n2)C(C)(C)C1 | > 10 | > 10 | > 10 | > 10 | > 10 | > 10 | > 10 | > 10 | > 10 | > 10 | > 10 | > 10 | > 10 | > 10 | > 10 | > 10 | > 10 |
| CSc1ncnc2c1cnn2Cc1cn(COCCO)nn1 | > 100 | > 100 | > 100 | > 100 | > 100 | > 100 | > 100 | > 100 | > 100 | > 100 | > 100 | > 100 | > 100 | > 100 | > 100 | > 100 | > 100 |
| COc1ccc(-n2c(CCC(=O)O)nc3c2C(=O)c2ccccc2C3=O)cc1 | > 100 | > 100 | > 100 | > 100 | > 100 | > 100 | > 100 | > 100 | > 100 | > 100 | > 100 | > 100 | > 100 | > 100 | > 100 | > 100 | > 100 |
| NS(=O)(=O)c1ccc(NC(=O)N/N=C/c2ccccc2O)cc1 | > 100 | > 100 | > 100 | > 100 | > 100 | > 100 | > 100 | > 100 | > 100 | > 100 | > 100 | > 100 | > 100 | > 100 | > 100 | > 100 | > 100 |
| FC(F)(F)c1ccccc1C1SCC2=Nc3ccccc3CN21 (configuration not stated) | 35.3 | 44.2 | 27.1 | 26.7 | 26.6 | 31.8 | 35.7 | 26.6 | 27.9 | > 100 | 22 | 58.2 | 42 | > 100 | > 100 | > 100 | 36.6 |
| O=C1N/C(=N\N=C\c2ccccc2)C(c2ccccc2)O1 (configuration not stated) | > 100 | > 100 | > 100 | > 100 | > 100 | > 100 | > 100 | > 100 | > 100 | > 100 | > 100 | > 100 | > 100 | > 100 | > 100 | > 100 | > 100 |
| CN(C)c1ccc(/C=C/C(=O)c2ccc(O)cc2)cc1 | > 65.7 | > 59 | 40.4 | > 100 | > 100 | 22.8 | > 40.6 | > 100 | 63.2 | 22 | > 100 | > 100 | 61.9 | 3.02 | > 100 | > 42 | > 92.4 |
| COc1ccc(C(O)/C(=N/N)c2nc3ccc(Cl)cc3[nH]c2=O)cc1 (configuration not stated) | > 100 | > 100 | > 100 | > 100 | > 100 | > 100 | > 100 | > 100 | > 100 | > 100 | > 100 | > 100 | > 100 | > 100 | > 100 | > 100 | > 100 |
| C[C@]12C=CC(=O)C=C1CC[C@@H]1[C@@H]2CC[C@@]2(C)[C@H]1CC[C@]2(O)C(N)=O | > 100 | > 100 | > 100 | > 100 | > 100 | > 100 | > 100 | > 100 | > 100 | > 100 | > 100 | > 100 | > 100 | > 100 | > 100 | > 100 | > 100 |
| Cc1c(C)c2c(c(N)c1C#N)C(=O)N(O)C2=O | > 100 | > 100 | > 100 | > 100 | > 100 | > 100 | > 100 | > 100 | > 100 | > 100 | > 100 | > 100 | > 100 | > 100 | > 100 | > 100 | > 100 |
| CCN(CC)CCCNc1c2c(Cl)cc(Cl)cc2nc2nc(=O)[nH]c(C)c12 | > 100 | > 100 | > 100 | > 100 | > 100 | 37.1 | > 100 | 50.6 | > 100 | > 10 | > 100 | 95.2 | 58 | > 10 | 37.9 | 33.9 | > 100 |
| CC(C)(C)OC(=O)NC1CCCC1C(=O)C1=CCCC1 (configuration not stated) | > 100 | > 100 | > 100 | > 100 | > 100 | > 100 | > 100 | > 100 | > 100 | > 100 | > 100 | > 100 | > 100 | > 100 | > 100 | > 100 | > 100 |
| FC(F)(F)c1ccc(C2ON=C(c3ccccc3)N2C23CC4CC(CC(C4)C2)C3)cc1 (configuration not stated) | > 10 | > 10 | > 10 | > 10 | > 10 | > 10 | > 10 | > 10 | > 10 | > 10 | > 10 | > 10 | > 10 | > 10 | > 10 | > 10 | > 10 |
| CC(=O)CCCCn1c(=O)c2c(nc(Br)n2C)n(C)c1=O | > 100 | > 100 | > 100 | > 100 | > 100 | > 100 | > 100 | > 100 | > 100 | > 100 | > 100 | > 100 | > 100 | > 100 | > 100 | > 100 | > 100 |
| Cc1cccc(C2ON=C(c3ccccc3)N2C23CC4CC(CC(C4)C2)C3)c1 (configuration not stated) | > 10 | > 10 | > 10 | > 10 | > 10 | > 10 | > 10 | > 10 | > 10 | > 10 | > 10 | > 10 | > 10 | > 10 | > 10 | > 10 | > 10 |
| O=C1Oc2ccccc2C1C/C(=N\Nc1ccccc1)c1ccccc1O (configuration not stated) | > 100 | > 100 | > 100 | > 100 | 74 | > 100 | 70.9 | > 100 | > 100 | 72.3 | > 100 | > 100 | > 100 | 58.1 | > 100 | > 100 | 90.5 |
